In patent publication US8716292B2, “Riminophenazines with 2-(heteroaryl)amino substituents and their anti-microbial activity” (priority 2010, dated 2014):
≈ marks a conversion by molar mass, not a printed value. Like-named read-outs stand apart in the source and are kept apart here.

Legend:
[1] = test system: Mycobacterium tuberculosis; details: relative to clofazimine; cited from earlier work
[2] = test system: Mycobacterium tuberculosis H37Rv strains; experiment: In vitro assay for antimicrobial susceptibility (microplate Alamar blue MIC); format: cell-based; details: Mycobacterium tuberculosis, H37RV, in vitro, Mycobacterium tuberculosis H37Rv strains; read-out: MIC (μg/mL) against H37Rv
H37Rv = experiment: In vivo testing: mice infected intravenously with H37Rv, lung tissue CFU counts; parameters: species or system Male BALB/c mice; details: thirty days postinfection; for Log CFU (TBI treated): 20 mg/kg, gavage 5 times weekly, lung tissue CFU; for log reduction at 20 mg/kg: Mycobacterium tuberculosis, H37RV, iv, 720 h, versus untreated control, lung tissue, read-out: Log CFU Reduction (TBI treated)
Method: Male BALB/c mice (18˜20 g) were infected intravenously with 0.2 ml portions containing 1×10^5 CFU of H37Rv. One day after the infection, four mice were sacrificed and the numbers of CFU in the spleens and lungs were determined. Organs were removed and homogenized in Middlebrook 7H9 broth. To enumerate CFU, appropriate dilutions of the homogenates were plated onto Middlebrook 7H10 agar and colonies were counted after 3 to 4 weeks of incubation at 37° C. The remaining mice were allocated either to untreated groups or to various drug treated groups (six mice per group). The dose of every test compound was 20 mg/kg. The positive control groups were treated by isoniazid and clofazimine. The test compounds and clofazimine were administered by gavage 5 times weekly. Untreated mice were administered by gavage with CMC. Thirty days postinfection, both untreated and treated mice were sacrificed and lung tissue CFU counts were determined. The significance of the CFU count and organ weight difference was assessed by a two-tailed Student t test. P≦0.01 was considered significant.

tuberculosis [3] = details: hamsters; cited from earlier work
tuberculosis [4] = details: mice; cited from earlier work
tuberculosis [5] = details: monkey model; cited from earlier work
tuberculosis [6] = details: guinea pig model; cited from earlier work
[7] = in vivo; cited from earlier work

Compound: CCN(CC)CCC/N=c1\cc2n(-c3ccc(Cl)c(Cl)c3)c3ccccc3nc-2cc1Nc1ccc(Cl)c(Cl)c1 [B4154]
- in vitro activity [1]: improved in vitro activity

Compound: FC(F)(F)Oc1ccc(-n2c3c/c(=N\C4CCOCC4)c(Nc4cccnc4)cc-3nc3ccccc32)cc1 [TBI-161, 5-(4-Trifluoromethoxyphenyl)-3-(4-tetrahydropyranyl)imino-2-(3-pyridyl)amino-3,5-dihydrophenazine]
- MIC [2]: 0.03 µg/mL (≈ 0.0564 µM)
- Log CFU (TBI treated) (H37Rv): 6.05
- log reduction at 20 mg/kg (H37Rv): 2.77

Compound: COc1ncccc1Nc1cc2nc3ccccc3n(-c3ccc(OC(F)(F)F)cc3)c-2c/c1=N\C1CCC(OC)CC1 (stereo not drawn) [TBI-166, 5-(4-Trifluoromethoxyphenyl)-(4-methoxycyclohexyl)imino-2-(2-methoxy-3-pyridyl)amino-3,5-dihydrophenazine]
- MIC [2]: 0.016 µg/mL (≈ 0.0271 µM)
- Log CFU (TBI treated) (H37Rv): 4.66
- log reduction at 20 mg/kg (H37Rv): 3.87

Compound: CC(C)/N=c1\cc2n(-c3ccc(Cl)cc3)c3ccccc3nc-2cc1Nc1cccnc1 [TBI-416, 5-(4-chlorophenyl)-3-(1-methylethyl)imino-2-(3-pyridyl)amino-3,5-dihydrophenazine]
- MIC [2]: 0.03 µg/mL (≈ 0.0682 µM)
- Log CFU (TBI treated) (H37Rv): 3.83
- log reduction at 20 mg/kg (H37Rv): 4.7

Compound: Clc1ccc(-n2c3c/c(=N\C4CCCCC4)c(Nc4cccnc4)cc-3nc3ccccc32)cc1 [TBI-422, 5-(4-Chlorophenyl)-3-cyclohexylimino-2-(3-pyridyl)amino-3,5-dihydrophenazine]
- MIC [2]: 0.06 µg/mL (≈ 0.125 µM)
- melting point: 194 to 196 °C

Compound: CN1CCC(/N=c2\cc3n(-c4ccc(Cl)cc4)c4ccccc4nc-3cc2Nc2cccnc2)CC1 [TBI-427, 5-(4-Chlorophenyl)-3-(N-methyl-4-piperidyl)imino-2-(3-pyridyl)amino-3,5-dihydrophenazine]
- MIC [2]: 0.125 µg/mL (≈ 0.253 µM)
- melting point: 198 to 200 °C

Compound: CN1CCC(C/N=c2\cc3n(-c4ccc(Cl)cc4)c4ccccc4nc-3cc2Nc2cccnc2)CC1 [TBI-428, 5-(4-Chlorophenyl)-3-(N-methyl-4-piperidylmethyl)imino-2-(3-pyridyl)amino-3,5-dihydrophenazine]
- MIC [2]: 0.25 µg/mL (≈ 0.491 µM)
- melting point: 188 to 190 °C

Compound: Clc1ccc(-n2c3c/c(=N\C4CCOCC4)c(Nc4cccnc4)cc-3nc3ccccc32)cc1 [TBI-434, 5-(4-Chlorophenyl)-3-(4-tetrahydropyranyl)imino-2-(3-pyridyl)amino-3,5-dihydrophenazine]
- MIC [2]: 0.03 µg/mL (≈ 0.0622 µM)
- melting point: 215 to 217 °C

Compound: CC(C)CN1CCC(/N=c2\cc3n(-c4ccc(Cl)cc4)c4ccccc4nc-3cc2Nc2cccnc2)CC1 [TBI-435, 5-(4-Chlorophenyl)-3-(N-isobutyl-4-piperidyl)imino-2-(3-pyridyl)amino-3,5-dihydrophenazine]
- MIC [2]: 0.25 µg/mL (≈ 0.465 µM)
- melting point: 209 to 210 °C

Compound: COC1CCC(/N=c2\cc3n(-c4ccc(Cl)cc4)c4ccccc4nc-3cc2Nc2cccnc2)CC1 (stereo not drawn) [TBI-436, 5-(4-Chlorophenyl)-3-(4-methoxycyclohexyl)imino-2-(3-pyridyl)amino-3,5-dihydrophenazine]
- MIC [2]: 0.03 µg/mL (≈ 0.0588 µM)
- melting point: 228 to 230 °C

Compound: Clc1ccc(-n2c3c/c(=N\C4CCN(C5CCCC5)CC4)c(Nc4cccnc4)cc-3nc3ccccc32)cc1 [TBI-437, 5-(4-Chlorophenyl)-3-(N-cyclopentyl-4-piperidyl)imino-2-(3-pyridyl)amino-3,5-dihydrophenazine]
- MIC [2]: 0.125 µg/mL (≈ 0.228 µM)
- melting point: 170 to 172 °C

Compound: COc1ncccc1Nc1cc2nc3ccccc3n(-c3ccc(Cl)cc3)c-2c/c1=N\C1CCOCC1 [TBI-443, 5-(4-chlorophenyl)-3-(4-tetrahydropyranyl)imino-2-(2-methoxy-3-pyridyl)amino-3,5-dihydrophenazine]
- MIC [2]: 0.016 µg/mL (≈ 0.0312 µM)
- Log CFU (TBI treated) (H37Rv): 5.13
- log reduction at 20 mg/kg (H37Rv): 3.4

Compound: COc1ncccc1Nc1cc2nc3ccccc3n(-c3ccc(Cl)cc3)c-2c/c1=N\C1CCC(OC)CC1 (stereo not drawn) [TBI-444, 5-(4-Chlorophenyl)-3-(4-methoxycyclohexyl)imino-2-(2-methoxy-3-pyridyl)amino-3,5-dihydrophenazine]
- MIC [2]: 0.016 µg/mL (≈ 0.0296 µM)
- Log CFU (TBI treated) (H37Rv): 4.71
- log reduction at 20 mg/kg (H37Rv): 3.82

Compound: Cc1ccc(Nc2cc3nc4ccccc4n(-c4ccc(Cl)cc4)c-3c/c2=N\C2CCOCC2)cn1 [TBI-449, 5-(4-Chlorophenyl)-3-(4-tetrahydropyranyl)imino-2-(6-methyl-3-pyridyl)amino-3,5-dihydrophenazine]
- MIC [2]: 0.03 µg/mL (≈ 0.0605 µM)
- Log CFU (TBI treated) (H37Rv): 3.87
- log reduction at 20 mg/kg (H37Rv): 4.66

Compound: COC1CCC(/N=c2\cc3n(-c4ccc(Cl)cc4)c4ccccc4nc-3cc2Nc2ccc(C)nc2)CC1 (stereo not drawn) [TBI-450, 5-(4-Chlorophenyl)-3-(4-methoxycyclohexyl)imino-2-(6-methyl-3-pyridyl)amino-3,5-dihydrophenazine]
- MIC [2]: 0.016 µg/mL (≈ 0.0305 µM)
- Log CFU (TBI treated) (H37Rv): 3.64
- log reduction at 20 mg/kg (H37Rv): 4.89

Compound: COc1ncccc1Nc1cc2nc3ccccc3n(-c3ccc(Br)cc3)c-2c/c1=N\C1CC1 [TBI-519, 5-(4-Bromophenyl)-3-cyclopropylimino-2-(2-methoxy-3-pyridyl)amino-3,5-dihydrophenazine]
- MIC [2]: 0.015 µg/mL (≈ 0.0293 µM)
- melting point: 217 to 218 °C

Compound: CC(C)/N=c1\cc2n(-c3cccc(F)c3)c3ccccc3nc-2cc1Nc1cccnc1 [TBI-522, 5-(3-Fluorophenyl)-3-(1-methylethyl)imino-2-(3-pyridyl)amino-3,5-dihydrophenazine]
- MIC [2]: 0.062 µg/mL (≈ 0.146 µM)
- melting point: 164 to 166 °C

Compound: CC(C)/N=c1\cc2n(-c3ccc(C(F)(F)F)cc3)c3ccccc3nc-2cc1Nc1cccnc1 [TBI-678, 5-(4-Trifluoromethylphenyl)-3-(1-methylethyl)imino-2-(3-pyridyl)amino-3,5-dihydrophenazine]
- MIC [2]: 0.03 µg/mL (≈ 0.0634 µM)
- Log CFU (TBI treated) (H37Rv): 5.82
- log reduction at 20 mg/kg (H37Rv): 3

Compound: COC1CCC(/N=c2\cc3n(-c4ccc(C(F)(F)F)cc4)c4ccccc4nc-3cc2Nc2cccnc2)CC1 (stereo not drawn) [TBI-688, 5-(4-Trifluoromethylphenyl)-3-(4-methoxycyclohexyl)imino-2-(3-pyridyl)amino-3,5-dihydrophenazine]
- MIC [2]: 0.03 µg/mL (≈ 0.0552 µM)
- Log CFU (TBI treated) (H37Rv): 5.99
- log reduction at 20 mg/kg (H37Rv): 2.83

Compound: COc1ncccc1Nc1cc2nc3ccccc3n(-c3ccc(F)cc3)c-2c/c1=N\C1CCC(OC)CC1 (stereo not drawn) [TBI-1002, 5-(4-Fluorophenyl)-3-(4-methoxycyclohexyl)imino-2-(2-methoxy-3-pyridyl)amino-3,5-dihydrophenazine]
- MIC [2]: 0.016 µg/mL (≈ 0.0306 µM)
- Log CFU (TBI treated) (H37Rv): 4.85
- log reduction at 20 mg/kg (H37Rv): 3.68

Compound: COc1ncccc1Nc1cc2nc3ccccc3n(-c3ccc(F)cc3)c-2c/c1=N\C1CC1 [TBI-1010, 5-(4-Fluorophenyl)-3-cyclopropylimino-2-(2-methoxy-3-pyridyl)amino-3,5-dihydrophenazine]
- MIC [2]: 0.011 µg/mL (≈ 0.0244 µM)
- Log CFU (TBI treated) (H37Rv): 4.86
- log reduction at 20 mg/kg (H37Rv): 3.67

Compound: CC(C)/N=c1\cc2n(-c3ccc(Cl)cc3)c3ccccc3nc-2cc1Nc1ccc(Cl)cc1 [clofazimine]
- in vivo anti-TB activity (tuberculosis [3]): demonstrated in vivo anti-TB activity
- in vivo anti-TB activity (tuberculosis [4]): demonstrated in vivo anti-TB activity
- efficacy (tuberculosis [5]): failed to show efficacy
- efficacy (tuberculosis [6]): failed to show efficacy
- half-life [7]: 70 days
